Laboratory results published in the supplement of paper PMC12463676, “Small-molecule dissolution of stress granules by redox modulation benefits ALS models” (Nature Chemical Biology, 2025).

How the values were obtained:
potassium arsenate = compound: O=[As]([O-])(O)O.[K+] [potassium arsenate]; assay: thermal stability z-score vs DMSO; higher = more thermally stabilized by treatment; details: HeLa; arsenate concentration 1 mM
Procedure: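 Cellular thermal proteome profiling in HeLa cells treated with 1 mM arsenate for 1 h (DMSO pretreatment), heated to ten temperatures (37-66.3 °C). Soluble protein was quantified by TMT mass spectrometry relative to DMSO controls; the thermal stability score was transformed to a z-score; mean of n = 3 experiments.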

lipoamide = compound: NC(=O)CCCCC1CCSS1 [lipoamide]; assay: as above; details: HeLa, lipoamide concentration 100 µM
Procedure: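 Cellular thermal proteome profiling in HeLa cells. Cells were treated with 100 µM lipoamide for 1 h, with or without 1 mM arsenate for a further 1 h, then heated to ten temperatures (37-66.3 °C), and soluble protein was quantified by TMT mass spectrometry relative to 0.1% DMSO controls. The thermal stability score (sum of log2 fold changes minus the abundance score) was transformed to a z-score; mean of n = 3 experiments.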

[1] = arsenate co-treatment: 1 mM arsenate 1 h
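Further: each temperature applied for 3 min, abundance score taken as mean log2 fold change at the two lowest temperatures, z-score obtained by mean subtraction and division by SD.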

UniProt Q99873, sequence (Q99873 whole entry, looked up): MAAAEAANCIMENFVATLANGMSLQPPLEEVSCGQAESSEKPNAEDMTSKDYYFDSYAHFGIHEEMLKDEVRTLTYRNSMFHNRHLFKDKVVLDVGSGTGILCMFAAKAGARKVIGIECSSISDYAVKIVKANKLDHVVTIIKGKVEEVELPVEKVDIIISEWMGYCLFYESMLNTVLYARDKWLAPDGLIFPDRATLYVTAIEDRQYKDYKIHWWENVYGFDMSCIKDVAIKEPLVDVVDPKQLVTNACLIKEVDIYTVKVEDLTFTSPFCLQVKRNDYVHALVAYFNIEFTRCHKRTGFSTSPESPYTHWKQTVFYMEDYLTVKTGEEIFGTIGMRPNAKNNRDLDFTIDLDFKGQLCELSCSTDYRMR
UniProt P60891, sequence (P60891 whole entry): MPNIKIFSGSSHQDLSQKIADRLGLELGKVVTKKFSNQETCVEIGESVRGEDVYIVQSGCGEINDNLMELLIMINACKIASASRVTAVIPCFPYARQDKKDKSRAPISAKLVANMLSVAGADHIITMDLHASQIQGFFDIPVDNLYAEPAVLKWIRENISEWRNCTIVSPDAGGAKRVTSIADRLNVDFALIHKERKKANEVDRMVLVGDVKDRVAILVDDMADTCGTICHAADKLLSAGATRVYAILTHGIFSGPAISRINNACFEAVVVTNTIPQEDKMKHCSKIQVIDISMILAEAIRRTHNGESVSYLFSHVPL
UniProt O75569, sequence (O75569 whole entry): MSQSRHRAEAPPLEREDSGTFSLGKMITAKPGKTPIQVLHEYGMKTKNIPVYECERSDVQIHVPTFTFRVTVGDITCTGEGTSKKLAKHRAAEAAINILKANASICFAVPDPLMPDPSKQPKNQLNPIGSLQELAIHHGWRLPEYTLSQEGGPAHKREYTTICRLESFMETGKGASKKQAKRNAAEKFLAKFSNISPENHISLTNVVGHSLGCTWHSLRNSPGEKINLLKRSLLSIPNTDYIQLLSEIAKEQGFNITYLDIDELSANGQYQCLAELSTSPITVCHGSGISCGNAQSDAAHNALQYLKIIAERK
UniProt Q8TCU6, sequence (Q8TCU6 whole entry): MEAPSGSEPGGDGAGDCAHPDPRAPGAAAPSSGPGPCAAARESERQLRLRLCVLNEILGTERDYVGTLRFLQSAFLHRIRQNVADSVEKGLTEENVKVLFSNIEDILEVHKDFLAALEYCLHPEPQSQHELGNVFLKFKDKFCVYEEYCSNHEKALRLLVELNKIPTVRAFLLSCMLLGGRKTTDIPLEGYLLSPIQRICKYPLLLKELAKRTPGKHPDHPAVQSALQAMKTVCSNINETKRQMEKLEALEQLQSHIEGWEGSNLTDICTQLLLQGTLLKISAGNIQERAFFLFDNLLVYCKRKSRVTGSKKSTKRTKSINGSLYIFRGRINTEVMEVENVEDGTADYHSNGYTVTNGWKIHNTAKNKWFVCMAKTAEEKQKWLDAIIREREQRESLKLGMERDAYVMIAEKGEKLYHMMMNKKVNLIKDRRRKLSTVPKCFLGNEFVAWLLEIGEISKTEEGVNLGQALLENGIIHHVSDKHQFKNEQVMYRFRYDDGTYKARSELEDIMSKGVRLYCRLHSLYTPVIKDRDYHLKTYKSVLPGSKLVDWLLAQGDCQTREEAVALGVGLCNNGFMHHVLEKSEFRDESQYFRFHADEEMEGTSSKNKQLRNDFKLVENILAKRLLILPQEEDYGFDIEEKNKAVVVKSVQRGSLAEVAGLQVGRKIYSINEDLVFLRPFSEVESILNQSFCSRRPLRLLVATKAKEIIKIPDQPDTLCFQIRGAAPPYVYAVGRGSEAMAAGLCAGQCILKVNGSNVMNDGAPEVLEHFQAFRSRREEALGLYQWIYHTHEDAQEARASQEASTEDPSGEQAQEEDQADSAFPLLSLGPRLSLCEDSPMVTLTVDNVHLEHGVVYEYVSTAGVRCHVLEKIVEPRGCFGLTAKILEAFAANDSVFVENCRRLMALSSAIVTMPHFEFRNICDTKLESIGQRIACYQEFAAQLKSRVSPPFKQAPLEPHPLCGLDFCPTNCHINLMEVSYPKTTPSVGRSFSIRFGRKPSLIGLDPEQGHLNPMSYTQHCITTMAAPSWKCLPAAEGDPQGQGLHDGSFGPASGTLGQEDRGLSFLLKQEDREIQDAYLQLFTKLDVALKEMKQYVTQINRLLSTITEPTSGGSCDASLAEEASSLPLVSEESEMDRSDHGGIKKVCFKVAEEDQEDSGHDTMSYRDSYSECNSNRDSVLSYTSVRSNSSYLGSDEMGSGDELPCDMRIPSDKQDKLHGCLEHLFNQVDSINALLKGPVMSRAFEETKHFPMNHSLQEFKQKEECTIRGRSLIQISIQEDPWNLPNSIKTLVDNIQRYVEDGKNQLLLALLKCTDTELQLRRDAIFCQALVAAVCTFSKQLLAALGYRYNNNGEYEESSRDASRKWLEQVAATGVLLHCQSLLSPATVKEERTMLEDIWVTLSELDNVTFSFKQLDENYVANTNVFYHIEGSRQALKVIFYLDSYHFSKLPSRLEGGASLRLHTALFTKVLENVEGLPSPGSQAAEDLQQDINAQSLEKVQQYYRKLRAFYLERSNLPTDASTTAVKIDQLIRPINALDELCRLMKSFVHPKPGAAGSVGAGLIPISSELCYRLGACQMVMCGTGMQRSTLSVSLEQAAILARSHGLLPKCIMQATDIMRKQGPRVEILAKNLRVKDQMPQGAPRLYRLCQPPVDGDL
UniProt O14744, sequence (O14744 whole entry): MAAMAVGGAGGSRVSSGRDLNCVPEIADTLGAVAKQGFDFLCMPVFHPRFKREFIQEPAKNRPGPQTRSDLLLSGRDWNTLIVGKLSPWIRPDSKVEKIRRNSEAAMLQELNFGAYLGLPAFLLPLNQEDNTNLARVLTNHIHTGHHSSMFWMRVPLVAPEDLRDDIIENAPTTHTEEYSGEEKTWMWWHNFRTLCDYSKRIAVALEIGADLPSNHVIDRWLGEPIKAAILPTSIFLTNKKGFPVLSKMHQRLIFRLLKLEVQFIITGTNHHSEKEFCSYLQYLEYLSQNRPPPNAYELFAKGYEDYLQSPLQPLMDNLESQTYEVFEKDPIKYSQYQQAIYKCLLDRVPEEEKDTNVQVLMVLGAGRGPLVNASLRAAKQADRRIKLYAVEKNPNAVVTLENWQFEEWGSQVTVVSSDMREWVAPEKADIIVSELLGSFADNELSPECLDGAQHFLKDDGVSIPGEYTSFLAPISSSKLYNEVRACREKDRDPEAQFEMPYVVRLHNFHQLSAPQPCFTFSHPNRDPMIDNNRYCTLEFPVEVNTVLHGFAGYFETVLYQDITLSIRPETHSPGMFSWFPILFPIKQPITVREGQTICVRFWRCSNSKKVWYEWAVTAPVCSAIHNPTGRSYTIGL
UniProt O43172, sequence (O43172 whole entry): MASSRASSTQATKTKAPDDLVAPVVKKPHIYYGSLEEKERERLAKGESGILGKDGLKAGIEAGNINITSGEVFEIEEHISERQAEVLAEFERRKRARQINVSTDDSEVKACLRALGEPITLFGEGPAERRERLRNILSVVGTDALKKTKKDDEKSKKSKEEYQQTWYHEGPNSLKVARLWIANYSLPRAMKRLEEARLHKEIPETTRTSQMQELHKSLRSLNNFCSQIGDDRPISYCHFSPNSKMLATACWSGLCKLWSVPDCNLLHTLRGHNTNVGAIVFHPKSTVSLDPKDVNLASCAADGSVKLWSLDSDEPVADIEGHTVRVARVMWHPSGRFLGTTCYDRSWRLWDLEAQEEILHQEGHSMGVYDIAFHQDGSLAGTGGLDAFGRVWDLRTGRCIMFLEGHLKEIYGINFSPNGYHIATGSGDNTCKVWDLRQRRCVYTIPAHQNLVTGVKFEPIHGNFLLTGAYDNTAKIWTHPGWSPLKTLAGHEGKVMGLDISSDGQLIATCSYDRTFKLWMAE
UniProt Q5VTL8, sequence (Q5VTL8 whole entry): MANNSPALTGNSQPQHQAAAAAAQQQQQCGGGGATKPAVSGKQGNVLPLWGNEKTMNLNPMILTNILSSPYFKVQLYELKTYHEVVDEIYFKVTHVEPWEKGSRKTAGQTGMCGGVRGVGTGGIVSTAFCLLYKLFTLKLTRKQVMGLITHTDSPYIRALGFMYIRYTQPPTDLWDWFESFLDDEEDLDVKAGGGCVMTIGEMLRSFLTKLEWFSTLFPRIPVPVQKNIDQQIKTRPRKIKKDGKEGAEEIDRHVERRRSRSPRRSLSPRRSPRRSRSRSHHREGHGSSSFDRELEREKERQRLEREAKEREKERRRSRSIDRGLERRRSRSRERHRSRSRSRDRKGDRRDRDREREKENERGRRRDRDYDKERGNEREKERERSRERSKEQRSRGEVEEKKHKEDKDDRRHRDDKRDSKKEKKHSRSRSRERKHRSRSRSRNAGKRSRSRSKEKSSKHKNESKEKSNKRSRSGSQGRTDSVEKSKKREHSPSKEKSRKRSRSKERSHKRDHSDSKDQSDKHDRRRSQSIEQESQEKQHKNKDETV
UniProt Q96M27, sequence (Q96M27 whole entry): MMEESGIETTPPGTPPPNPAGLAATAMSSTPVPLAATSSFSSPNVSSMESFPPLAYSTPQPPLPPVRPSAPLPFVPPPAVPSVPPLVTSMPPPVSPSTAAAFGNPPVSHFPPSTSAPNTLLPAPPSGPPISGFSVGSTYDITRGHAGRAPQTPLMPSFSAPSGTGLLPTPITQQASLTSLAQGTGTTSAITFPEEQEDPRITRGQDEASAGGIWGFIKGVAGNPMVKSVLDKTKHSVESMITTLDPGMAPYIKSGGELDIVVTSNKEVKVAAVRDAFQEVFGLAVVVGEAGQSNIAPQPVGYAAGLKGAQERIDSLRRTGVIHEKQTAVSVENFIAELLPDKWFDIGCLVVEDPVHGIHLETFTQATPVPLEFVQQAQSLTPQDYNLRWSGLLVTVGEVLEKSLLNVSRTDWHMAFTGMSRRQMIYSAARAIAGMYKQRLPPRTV
UniProt P30044, sequence (P30044 whole entry): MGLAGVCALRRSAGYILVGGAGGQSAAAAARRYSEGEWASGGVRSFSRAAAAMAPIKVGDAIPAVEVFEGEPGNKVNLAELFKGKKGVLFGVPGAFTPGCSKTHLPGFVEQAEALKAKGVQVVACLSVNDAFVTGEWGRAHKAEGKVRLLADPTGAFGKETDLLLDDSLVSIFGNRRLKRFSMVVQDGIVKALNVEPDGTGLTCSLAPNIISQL

| Target | thermal stability z-score (potassium arsenate) | thermal stability z-score (lipoamide; [1]) | thermal stability z-score (lipoamide; arsenate co-treatment: none) |
| --- | --- | --- | --- |
| PRDX5 (UniProt P30044) | -0.761 | -0.275 | 0.138 |
| PRDX6 (UniProt P30041) | 0.144 | 0.00439 | 0.281 |
| PREB (UniProt Q9HCU5) | -0.0461 | -0.337 | -0.353 |
| PRELID1 (UniProt Q9Y255) | -0.054 | 0.0933 | -0.2 |
| PRELID3B (UniProt Q9Y3B1) | -0.684 | -0.72 | -0.844 |
| PREP (UniProt P48147) | 0.347 | -0.299 | -0.268 |
| PREPL (UniProt Q4J6C6) | -0.177 | 0.836 | 0.783 |
| PREX1 (UniProt Q8TCU6) | -0.0577 | 0.02 | 0.0645 |
| PRG4 (UniProt Q92954) | 0.248 | -2.2 | -2.18 |
| PRIM1 (UniProt P49642) | -0.439 | -0.361 | -0.125 |
| PRIM2 (UniProt P49643) | -0.113 | 0.176 | -0.165 |
| PRKAA1 (UniProt Q13131) | 0.048 | -0.417 | -0.0988 |
| PRKAB1 (UniProt Q9Y478) | -0.528 | -0.236 | 0.539 |
| PRKACA (UniProt P17612) | 0.535 | 0.104 | 0.151 |
| PRKACB (UniProt P22694) | 0.18 | -0.58 | -0.36 |
| PRKAG1 (UniProt P54619) | 0.942 | 0.174 | 0.0278 |
| PRKAR1A (UniProt P10644) | -0.065 | -0.101 | 0.167 |
| PRKAR1B (UniProt P31321) | 1.31 | 0.568 | 0.264 |
| PRKAR2A (UniProt P13861) | 0.904 | 0.114 | 0.239 |
| PRKCA (UniProt P17252) | 0.458 | 0.358 | 0.32 |
| PRKCD (UniProt Q05655) | -0.477 | -0.0378 | 0.235 |
| PRKCDBP (UniProt Q969G5) | 0.331 | 1.06 | -0.0261 |
| PRKCI (UniProt P41743) | -0.914 | -0.507 | -0.312 |
| PRKCSH (UniProt P14314) | 0.768 | -2.77 | -2.47 |
| PRKCZ (UniProt Q05513) | -0.0717 | -0.134 | -0.119 |
| PRKD2 (UniProt Q9BZL6) | -0.232 | -0.0965 | -0.0785 |
| PRKDC (UniProt P78527) | -0.559 | 0.373 | 0.169 |
| PRKRA (UniProt O75569) | -0.312 | -0.115 | -0.0608 |

| Target | thermal stability z-score (potassium arsenate) | thermal stability z-score (lipoamide; [1]) | thermal stability z-score (lipoamide; arsenate co-treatment: none) |
| --- | --- | --- | --- |
| PRKRIP1 (UniProt Q9H875) | 0.247 | 0.524 | 0.599 |
| PRMT1 (UniProt Q99873) | -0.12 | 0.147 | 0.262 |
| PRMT3 (UniProt O60678) | -0.148 | -0.336 | 0.22 |
| PRMT5 (UniProt O14744) | -0.408 | 0.459 | 0.231 |
| PRMT6 (UniProt Q96LA8) | 0.483 | 0.257 | 0.412 |
| PRMT7 (UniProt Q9NVM4) | 1.47 | -0.363 | 0.259 |
| PRMT9 (UniProt Q6P2P2) | 0.171 | 0.25 | 0.0769 |
| PRNP | 0.0499 | 0.0235 | 0.239 |
| PROCR (UniProt Q9UNN8) | 1.04 | 1.19 | 0.359 |
| PROSC (UniProt O94903) | -1.14 | -0.595 | 0.453 |
| PROSER2 (UniProt Q86WR7) | -0.644 | -0.111 | -0.0827 |
| PRPF3 (UniProt O43395) | -0.0589 | 2.57 | 2.44 |
| PRPF4 (UniProt O43172) | 0.565 | 1.82 | 1.6 |
| PRPF6 (UniProt O94906) | -0.171 | -0.136 | -0.0563 |
| PRPF8 (UniProt Q6P2Q9) | -0.418 | -0.186 | -0.395 |
| PRPF18 (UniProt Q99633) | -0.321 | -0.378 | 0.186 |
| PRPF19 (UniProt Q9UMS4) | -0.692 | 1.23 | 0.686 |
| PRPF31 (UniProt Q8WWY3) | -0.687 | -0.0354 | -0.524 |
| PRPF38A (UniProt Q8NAV1) | 0.503 | 0.22 | 0.213 |
| PRPF38B (UniProt Q5VTL8) | -0.358 | -0.807 | -0.366 |
| PRPF39 (UniProt Q86UA1) | -0.0696 | -0.0835 | -0.137 |
| PRPF40A (UniProt O75400) | 0.00775 | -0.0187 | 0.00497 |
| PRPS1 (UniProt P60891) | -1.1 | 0.0132 | -0.285 |
| PRPS2 (UniProt P11908) | -1.24 | 0.114 | -0.199 |
| PRPSAP1 (UniProt Q14558) | -0.858 | 0.0495 | -0.517 |
| PRPSAP2 (UniProt O60256) | -0.637 | -0.04 | -0.392 |
| PRRC1 (UniProt Q96M27) | -0.142 | 0.101 | 0.135 |
